The values below are quoted from earlier work in patent publication US10827752B2, “Disinfectant composition” (priority 2010, dated 2020).

“Also recorded” adds a separate entry of the source.

The data set relates to spores. Conditions: approximately 2500 ppm of peracetic acid.

On to `CC(=O)OO` [peracetic acid], for which the sporicidal action result is listed as “excellent sporicidal action; also recorded: excellent sporicidal results”.
